# Measurements: patent publication US20240239789A1, “SALTS OF 2-BRO[…] DIETHYLAMIDE” (Ceruvia Lifesciences LLC, priority 2022, published 2024)
# Tests used:
# Assay type in all cases: physicochemical
# [1] = Dynamic vapor sorption (DVS) moisture sorption analysis
# Procedure: Sorption isotherms were obtained using a Hiden Isochema moisture sorption analyser (model IGAsorp), controlled by IGAsorp Systems Software V6.50.48. The sample was maintained at a constant temperature (25° C.) by the instrument controls. The humidity was controlled by mixing streams of dry and wet nitrogen, with a total flow of 250 mL/min. The instrument was verified for relative humidity content by measuring three calibrated Rotronic salt solutions (10-50-88%). The weight change of the sample was monitored as a function of humidity by a microbalance (accuracy +/−0.005 mg). A defined amount of sample was placed in a tared mesh stainless steel basket under ambient conditions. A full experimental cycle typically consisted of three scans (sorption, desorption and sorption) at a constant temperature (25° C.) and 10% RH intervals over a 0-90% range (60 minutes for each humidity level).
# [2] = Thermogravimetric analysis (TGA) weight loss after drying; settings: after drying in vacuo at 50° C. for 18 hours; between 25° C. and 200° C.; heating rate 20° C./min
# Procedure: TGA data were collected on a TA Instruments Discovery TGA equipped with a 25-position auto-sampler. The instrument was calibrated using a certified weight and certified Alumel and Nickel for temperature. A predefined amount of the sample, ca. 5 mg, was loaded into a pre-tared aluminum ACCUPIK™ sample pan and platinum crucible and was heated at 20° C./min from ambient (room) temperature to 400° C. unless otherwise stated. A nitrogen purge at 25 mL/min was maintained over the sample. The instrument control, data acquisition and analysis were performed with TA Instruments TRIOS software v4.1.1.33073.
# [3] = XRPD analysis ex DVS following equilibration at extremes of humidity; settings: 0% and 90% relative humidity
# Excerpt: The crystalline salts of 2-Br-LSD were characterized by their powder X-ray diffraction patterns. Powder X-ray diffractograms of the crystalline salts of 2-Br-LSD described herein were collected on a PANalytical X'pert PRO diffractometer using Cu Kα radiation (45 kV, 40 mA), θ-θ goniometer, focusing mirror, divergence slit (½″), soller slits at both incident and divergent beam (4 mm) and a PIXcel detector. Data was presented using X'Pert Data Viewer, version 1.2d. XRPD patterns were acquired under ambient conditions via a transmission foil sample stage (polyimide—Kapton®, 12.7 μm thickness film). The data collection range was 2.994-35° 2θ with a continuous scan speed of 0.202004° s^−1. Lists of major XRPD peaks (relative intensity ≥10%) for the crystalline salts of the present disclosure are tabulated below.
# Sorption isotherms were obtained using a Hiden Isochema moisture sorption analyser (model IGAsorp), controlled by IGAsorp Systems Software V6.50.48. The sample was maintained at a constant temperature (25° C.) by the instrument controls. The humidity was controlled by mixing streams of dry and wet nitrogen, with a total flow of 250 mL/min. The instrument was verified for relative humidity content by measuring three calibrated Rotronic salt solutions (10-50-88%). The weight change of the sample was monitored as a function of humidity by a microbalance (accuracy +/−0.005 mg). […]
structure (smiles),measurement,setting,value
"Br.CCN(CC)C(=O)[C@@H]1C=C2c3cccc4[nH]c(Br)c(c34)C[C@H]2N(C)C1 [2-Br-LSD hydrobromide (Form 1), 2-bromolysergic acid diethylamide hydrobromide]",weight change upon dynamic vapor sorption analysis,"[1]; 25° C., RH range 0-90%, 10% RH intervals, 60 minutes for each humidity level",less than 0.5%
same,water retained at 0% RH (reversibility of water uptake),"[1]; 25° C., desorption to 0% RH",no water was retained
same,further weight increase between 60% RH and 90% RH,"[1]; 25° C., initial sorption cycle, between 60% RH and 90% RH",0.2 wt %
same,water gained during initial sorption cycle up to 60% RH,"[1]; 25° C., initial sorption cycle, up to 60% RH",0.21%
same,total water uptake,"[1]; 25° C., initial sorption cycle, up to 90% RH",0.4%
same,hygroscopicity,[1]; definition in b65: TGA <1% weight loss and DVS <about 0.5% weight change,non-hygroscopic
same,weight loss upon thermogravimetric analysis,[2],less than 1%
same,solid form change following equilibration at extremes of humidity,[3],no form change occurred
